Test results as given in patent US20240398822A1, “METHODS AND COMPOSITIONS FOR TREATING AND MANAGING ALZHEIMER'S DISEASE” (Pharmatrophix, Inc., priority 2021, published 2024).

Assays:
sTREM2 = test: Phase IIa CSF glial biomarker sTREM2; format: in vivo, human
Excerpt: CSF samples were obtained at screening Visit and final Visit via lumbar puncture to determine levels of tau, p-tau, Aβ40, Aβ42 and AChE activity as an initial set of CSF biomarkers. Aliquots of CSF were made available for emerging CSF biomarker methods such as measurement of additional biomarkers including neurofilaments light chain, neurogranin, SNAP-25, synaptotagmin, YKL-40, TREM2, tau oligomers and for measurement of drug level in selected patients based on the time period between last dose of drug and CSF sampling (FIG. 25 and FIG. 58).
Baseline CSF samples are obtained prior to administration via lumbar puncture. These samples are used to determine levels of tau, p-tau, Aβ40, Aβ42, AChE, neurofilament light chain, SNAP-25, synaptotagmin-1, neurogranin, sTREM, and YKL-40. Aliquots of CSF are also made available for emerging CSF biomarker methods such as measurement of tau oligomers and for measurement of drug level in selected patients based on time period between last dose of the salt of Formula (II) and CSF sampling. […] Many of these biomarkers can also be measured in blood or plasma. The change in values over the time period from pre-treatment to post-treatment are of particular importance. […]

[1] = tested on: patients with mild to moderate Alzheimer's disease; test: Phase IIa brain glucose metabolism (18F-FDG-PET); format: in vivo, human; details: for FDG-PET voxel (MCS) analysis, dose comparison: 400 mg versus 200 mg versus placebo
Protocol: The specific ^18F FDG-PET scan for early detection of AD is conducted at the first and final visits. Quantitative and qualitative estimates of the cerebral glucose rate may be done by using FDG-PET as evident metabolic reduction is already present in patients at early stages of Alzheimer's disease. ^18F FDG-PET scanning is an imaging biomarker for synaptic function. Analyses include anatomical, statistical or voxel-based regions of interest.
FDG-PET using statistical ROI measures derived from ADNI as described in the Chen et al. paper.
Areas showing less decline are highlighted in yellow. It is notable that these areas are relevant to areas that degeneration in AD. […] This method makes possible analysis of FDG-PET signal in a common three-dimensional sampling space with the MRI analysis for each subject thereby enhancing accuracy of FDG-PET analysis and allowing the combination of the two modalities for further analyses and the assessment of the spatial relationship between structural and functional degeneration over time. […] For this analysis, the drug treatment group contains subjects treated with either 200 or 400 mg doses.
FIGS. 56A-56C show FDG PET using group x time interaction patterns. In FIGS. 56A-56C, contrast estimate plots show the magnitude and direction of the interaction effects observed in the flexible factorial GLM.
Therefore, if the actual observed ratio of t-values is close to equivalent in the input map at a given p and k threshold, the MCS ratio and p-value will tend to support the null hypothesis of no drug effect.

CC[C@H](C)[C@H](N)C(=O)NCCN1CCOCC1 [LM11A-31-BHS, Tris[(2S,3S)-2-amino-3-methyl-N-(2-morpholinoethyl)pentanamide] tetra(monohydrogensulfate), monosulfate]
CSF sTREM2, drug dose analysis (sTREM2; 200 and 400 mg doses): nominal reduction at the 200 and 400 mg doses
CSF sTREM2, drug effect (sTREM2; combined drug group, 6-month period): no drug effect was detected
FDG-PET voxel (MCS) analysis, dose comparison [1]: 400 mg effect is significant and significantly greater than the 200 mg effect
FDG-PET voxel (MCS) analysis, dose comparison ([1]; listed as LM11A-31): The effect at the 400 mg dose is higher than that at the 200 mg dose
FDG-PET statistical ROI decline, drug versus placebo ([1]; combined drug group, 6 month period): trend to less decline
cerebral glucose rate compared to placebo or no treatment ([1]; daily treatment): reduction in the extent of ongoing decrease in cerebral glucose rate
FDG-PET loss of SUVR signal, dose analysis ([1]; flexible factorial GLM, p<0.05 and cluster size >100): significant effect at both the 200 and 400 mg doses in slowing loss of SUVR signal
FDG-PET sROI, dose comparison ([1]; not statistically significant): greater trend is observed at 400 compared to the 200 mg dose
